Experimental data: US20250263370A1 (Tay Therapeutics Limited, priority 2022, published 2025)
Several values for one entry are separate records, joined by “and”; a condition that tells them apart may be missing. Equal values may be shown once. Entries after “also recorded” stand apart in the source; their conditions may differ.

Tested on: renal fibrosis
Test: Unilateral Urethral Obstruction (UUO) renal fibrosis model in rats: body weight, clinical observations, histopathology scores, serum urea, hydroxyproline
Format: in vivo, rat
Set-up: Glomerulosclerosis score / Interstitial nephritis score / Collagen fiber deposition score / Nephropathy score / Total score: scale not given here
Settings: for Clinical Observation: — = no observation
Source text: Unilateral Urethral Obstruction (UUO) is a complex model of renal fibrosis (RF) disease. RF is a common outcome in progressive chronic kidney diseases, characterized by excessive formation of internal scar tissue. Surgical obstruction of urine flow can be used to trigger this disease in rodents. The UUO model allows for evaluation of potential drugs as treatment for RF.
Experimental groups for the study are outlined in Table 10. […] Briefly, animals were anesthetized using a Zoletil/Xylazine mixture (20:1, v:v) for a final dose of 25 mg/kg. The operation area was disinfected with 75% alcohol before shaving. Rats in UUO group were exposed left ureter through a small incision on the left side of the abdomen and ligated with 3-0 silk at two locations about 0.5 cm below the renal hilum. The ureters of sham rats in Group 1 were manipulated but not ligated.
Starting on Day 0, animals in group 2 were administered daily doses of the vehicle for 14 days.
Clinical signs for all animals were monitored and recorded daily. Blind clinical nephropathy scores were conducted for all animals in the study. Glomerulosclerosis, interstitial nephritis, collagen fiber deposition, nephropathy were each assessed for all experimental rats, and a total clinical score was determined for each rat. The scoring system represented the degree or percentage of lesions in the whole kidney. Clinical score assessments were performed on Day 14.
Serum for blood biochemistry analysis was collected into centrifuge tubes without coagulant four hours after final dosing. Blood plasma samples from group 3 was collected into tubes with K2EDTA four hours after final dosing. At the conclusion of the study (end of the 14-day period), animals were euthanized. Kidney tissue was collected four hours after final dosing. Ligated side kidney was divided into three copies ⅓ fix into 10% formalin for H&E analysis, ⅓ into RNA for PCR analysis of tissue biomarkers Col1a1, TGF-b1, MCP-1, IL-1b, IL-6, IL-17, TNF-a, and Timp1, and ⅓ for hydroxyproline assay analyzed by ELISA. RNA was extracted from tissue using the RNeasy mini kit (Qiagen). RNA concentration was measured using a NanoDrop One Spectrophotometer (ThermoFisher) and converted to cDNA using a High-Capacity RNA-to-cDNA kit (Invitrogen). RT-PCR was performed to measure levels of mRNA of different targets using TaqMan® Gene Expression Master Mix and TaqMan® probe/primer sets on a QuantStudio 6, Real-Time PCR System (ThermoFisher). Fold change in target gene expression was determined using the ΔΔCt method.

[1] = 30 mg/kg BID for 14 days (group 3)
[2] = Example 101 30 mg/kg, individual animals, histopathology score

## CNC(=O)c1[nH]c(C(=O)NC2CCC2)cc1O[C@@H](C)c1ccccc1 (stereo in doubt) [Example 101, N^5-cyclobutyl-N^2-methyl-3-(1-phenylethoxy)-1H-pyrrole-2,5-dicarboxamide]
30 mg/kg
  overall effect in UUO / renal fibrosis: ameliorates clinical symptoms associated with UUO; also recorded: surprisingly effective against renal fibrosis and renal fibrosis-related conditions
[1]
  animals that exhibited diarrhea in addition to soft stools: One animal
  animals that exhibited dirty anuses: Three animals
  body weight over the 14-day study: slight weight loss over the first seven days of the study, and then gained weight over the remaining seven days
  rats that exhibited soft stools during the study: Four
30 mg/kg BID, Day 14
  level of collagen fiber deposition relative to UUO + vehicle: reduced
  level of interstitial nephritis relative to UUO + vehicle: reduced
  level of nephropathy relative to UUO + vehicle: reduced
  pathology staining of kidney (FIG. 13B): mild interstitial nephritis with neutrophil and lymphocyte infiltration, degeneration and necrosis of renal tubular epithelial cells, and high tubular dilatation
  total clinical scores relative to UUO + vehicle: reduced
30 mg/kg BID, four hours after final dosing
  serum urea levels between the three experimental groups: No significant differences
30 mg/kg BID, kidney tissue
  hydroxyproline levels between the three experimental groups: No significant differences
30 mg/kg, Day 0, individual animals
  Body weight: 324 g and 307 g and 295 g and 302 g and 285 g and 297 g and 294 g and 306 g
30 mg/kg, Day 1, individual animals
  Body weight: 293 g and 284 g (2×) and 277 g (2×) and 279 g and 276 g and 302 g
30 mg/kg, Day 2, individual animals
  Body weight: 299 g (2×) and 274 g (3×) and 275 g and 273 g and 303 g
30 mg/kg, Day 3, individual animals
  Body weight: 306 g and 266 g and 267 g and 274 g (2×) and 278 g and 304 g and 305 g
30 mg/kg, Day 4, individual animals
  Body weight: 315 g and 259 g and 262 g and 276 g and 283 g and 277 g and 309 g and 312 g
30 mg/kg, Day 5, individual animals
  Body weight: 310 g and 263 g and 254 g and 282 g and 284 g and 279 g and 302 g and 315 g
30 mg/kg, Day 6, individual animals
  Body weight: 323 g and 265 g and 258 g and 286 g and 285 g and 284 g and 304 g and 321 g
30 mg/kg, Day 7, individual animals
  Body weight: 322 g and 270 g and 258 g and 297 g and 289 g and 287 g and 307 g and 324 g
30 mg/kg, Day 8, individual animals
  Body weight: 322 g and 271 g and 260 g and 296 g
30 mg/kg, Day 9, individual animals
  Body weight: 331 g and 276 g and 264 g and 303 g
30 mg/kg, Day 10, individual animals
  Body weight: 330 g and 277 g and 261 g and 311 g
30 mg/kg, Day 11, individual animals
  Body weight: 327 g and 275 g and 265 g and 297 g
30 mg/kg, Day 12, individual animals
  Body weight: 318 g and 285 g and 260 g and 291 g
30 mg/kg, Day 13, individual animals
  Body weight: 328 g and 283 g and 276 g and 304 g
30 mg/kg, Day 14, individual animals
  Body weight: 334 g and 286 g and 271 g and 313 g
30 mg/kg, Day −1, individual animals
  Body weight: 306 g and 287 g and 299 g and 295 g and 281 g and 285 g and 296 g and 301 g
30 mg/kg, group mean
  Serum Urea Mean ± SD: 5.85 ± 0.69 mmol/L
30 mg/kg, individual animals
  Serum Urea: 4.95 mmol/L and 6.04 mmol/L and 6.62 mmol/L and 5.01 mmol/L and 5.28 mmol/L and 6.26 mmol/L and 5.90 mmol/L and 6.70 mmol/L
[2]
  Collagen fiber deposition score: 2 (2×) and 1 (6×)
  Glomerulosclerosis score: 0
  Interstitial nephritis score: 3 (5×) and 2 (3×)
  Nephropathy score: 2 (2×) and 1 (6×)
Example 101 30 mg/kg, individual animals, sum of histopathology scores
  Total score: 7 (2×) and 5 (3×) and 4 (3×)
Group 3, Day 0, group mean
  Body weight, Mean ± SD: 301 g
Group 3, Day 1, group mean
  Body weight, Mean ± SD: 284 g
Group 3, Day 2, group mean
  Body weight, Mean ± SD: 284 g
Group 3, Day 3, group mean
  Body weight, Mean ± SD: 284 g
Group 3, Day 3, individual animals
  Clinical Observation: diarrhea
Group 3, Day 4, group mean
  Body weight, Mean ± SD: 287 g
Group 3, Day 5, group mean
  Body weight, Mean ± SD: 286 g
Group 3, Day 5, individual animals
  Clinical Observation: Anal
Group 3, Day 6, group mean
  Body weight, Mean ± SD: 291 g
Group 3, Day 6, individual animals
  Clinical Observation: Anal
Group 3, Day 7, group mean
  Body weight, Mean ± SD: 294 g
Group 3, Day 7, individual animals
  Clinical Observation: Anal
Group 3, Day 8, group mean
  Body weight, Mean ± SD: 296 g
Group 3, Day 8, individual animals
  Clinical Observation: soft
Group 3, Day 9, group mean
  Body weight, Mean ± SD: 300 g
Group 3, Day 9, individual animals
  Clinical Observation: soft
Group 3, Day 10, group mean
  Body weight, Mean ± SD: 303 g
Group 3, Day 10, individual animals
  Clinical Observation: soft
Group 3, Day 11, group mean
  Body weight, Mean ± SD: 306 g
Group 3, Day 12, group mean
  Body weight, Mean ± SD: 304 g
Group 3, Day 13, group mean
  Body weight, Mean ± SD: 312 g
Group 3, Day 13, individual animals
  Clinical Observation: soft
Group 3, Day 14, group mean
  Body weight, Mean ± SD: 314 g
Group 3, Day 14, individual animals
  Clinical Observation: Anal (2×) and soft
Group 3, Day −1, group mean
  Body weight, Mean ± SD: 294 g
Group mean
  Final Hydroxyproline Con., Mean: 0.65 μg/mg tissue
Individual animals
  Final Hydroxyproline Con.: 0.72 μg/mg tissue (2×) and 0.69 μg/mg tissue and 0.64 μg/mg tissue and 0.60 μg/mg tissue and 0.66 μg/mg tissue and 0.58 μg/mg tissue and 0.55 μg/mg tissue
